Data: ChEMBL document CHEMBL5543109, “Novel β-Hairpin Antimicrobial Peptide Containing the β-Turn Sequence of -NG- and the Tryptophan Zippers Facilitate Self-Assembly into Nanofibers, Exhibiting Excellent Antimicrobial Performance” (J Med Chem, 2024)
Active and inactive are the calls of the source.

Experiments:
[1] = Toxicity in BALB/c mouse infected with Staphylococcus aureus 794 assessed as inflammatory cell infiltration at 1 mg/ml, ip pre-infected with bacteria for 24 hrs followed by compound addition and measured after 13 days by H and E staining based histopathological analysis; format: organism-based; details: in vivo, 312 h, time 13 day
[2] = Toxicity in BALB/c mouse infected with Staphylococcus aureus 794 assessed as hyperkeratosis at 1 mg/ml, ip pre-infected with bacteria for 24 hrs followed by compound addition and measured after 13 days by H and E staining based histopathological analysis; format: organism-based; details: in vivo, 312 h, time 13 day
Staphylococcus aureus [3] = assay: Antibacterial activity against methicillin resistant Staphylococcus aureus incubated for 18 hrs by broth microdilution method; format: functional
Staphylococcus aureus [4] = assay: Antibacterial activity against methicillin resistant Staphylococcus aureus 113 incubated for 18 hrs by broth microdilution method; format: functional
Staphylococcus aureus [5] = assay: Antibacterial activity against Staphylococcus aureus 794 infected in BALB/c mouse skin wound infection model assessed as wound healing by measuring thickened scab at 1 mg/ml, ip pre-infected with bacteria for 24 hrs followed by compound addition and measured on day 9; format: functional, organism-based; details: time 9.0 day
Escherichia coli [6] = assay: Antibacterial activity against kanamycin resistant Escherichia coli incubated for 18 hrs by broth microdilution method; format: functional
Staphylococcus aureus [7] = assay: Antibacterial activity against Staphylococcus aureus ATCC 25923 infected in BALB/c mouse skin wound infection model assessed as reduction in wound bacterial load at 1 mg/ml, ip administered at 1 hr interval for total 6 treatment and measured after 1 hr post last dose; format: functional, organism-based; details: time 7.0 hrs
Staphylococcus aureus [8] = assay: Antibacterial activity against Staphylococcus aureus 794 infected in BALB/c mouse skin wound infection model assessed as reduction in TNFalpha level at 1 mg/ml, ip pre-infected with bacteria for 24 hrs followed by compound addition and measured after 13 days post infection; format: functional, organism-based; details: time 12.0 day
Escherichia coli [9] = assay: Antibacterial activity against rifampicin resistant Escherichia coli incubated for 18 hrs by broth microdilution method; format: functional
Staphylococcus aureus [10] = assay: Antibacterial activity against Staphylococcus aureus incubated for 18 hrs by broth microdilution method; format: functional
Escherichia coli [11] = assay: Antibacterial activity against Escherichia coli incubated for 18 hrs by broth microdilution method; format: functional
Staphylococcus aureus [12] = assay: Antibacterial activity against Staphylococcus aureus S794 incubated for 18 hrs by broth microdilution method; format: functional
Staphylococcus aureus [13] = assay: Antibacterial activity against Staphylococcus aureus 794 infected in BALB/c mouse skin wound infection model assessed as wound healing at 1 mg/ml, ip pre-infected with bacteria for 24 hrs followed by compound addition and measured after 13 days post infection; format: functional, organism-based; details: time 12.0 day
Staphylococcus aureus [14] = assay: Antibacterial activity against Staphylococcus aureus 794 infected in BALB/c mouse skin wound infection model assessed as wound healing at 1 mg/ml, ip pre-infected with bacteria for 24 hrs followed by compound addition and measured on day 11; format: functional; details: time 11.0 day
Staphylococcus aureus [15] = assay: Antibacterial activity against methicillin resistant Staphylococcus aureus 75 incubated for 18 hrs by broth microdilution method; format: functional
[16] = Toxicity in BALB/c mouse infected with Staphylococcus aureus 794 assessed as cell necrosis at 1 mg/ml, ip pre-infected with bacteria for 24 hrs followed by compound addition and measured after 13 days by H and E staining based histopathological analysis; format: organism-based; details: in vivo, 312 h, time 13 day
Staphylococcus aureus [17] = assay: Antibacterial activity against kanamycin resistant Staphylococcus aureus incubated for 18 hrs by broth microdilution method; format: functional
Staphylococcus aureus [18] = assay: Antibacterial activity against Staphylococcus aureus S125 incubated for 18 hrs by broth microdilution method; format: functional
Staphylococcus aureus [19] = assay: Antibacterial activity against rifampicin resistant Staphylococcus aureus incubated for 18 hrs by broth microdilution method; format: functional

CN[C@H](CC(C)C)C(=O)N[C@H]1C(=O)N[C@@H](CC(N)=O)C(=O)N[C@H]2C(=O)N[C@H]3C(=O)N[C@H](C(=O)N[C@H](C(=O)O)c4cc(O)cc(O)c4-c4cc3ccc4O)[C@H](O)c3ccc(c(Cl)c3)Oc3cc2cc(c3O[C@@H]2O[C@H](CO)[C@@H](O)[C@H](O)[C@H]2O[C@H]2C[C@](C)(N)[C@H](O)[C@H](C)O2)Oc2ccc(cc2Cl)[C@H]1O [VANCOMYCIN]
inactive: Activity (Staphylococcus aureus [14])
active: Activity (Staphylococcus aureus [5]) | Activity (Staphylococcus aureus [7]) | Activity (Staphylococcus aureus [8]) | Activity (Staphylococcus aureus [13])
128 µM: MIC (Escherichia coli [9]) | MIC (Staphylococcus aureus [19])
Toxic: Activity [1] | Activity [2] | Activity [16]
0.5 µM: MIC (Staphylococcus aureus [3]) | MIC (Staphylococcus aureus [4]) | MIC (Staphylococcus aureus [10]) | MIC (Staphylococcus aureus [15]) | MIC (Staphylococcus aureus [17]) | MIC (Staphylococcus aureus [18])
64 µM: MIC (Escherichia coli [6]) | MIC (Escherichia coli [11]) | MIC (Staphylococcus aureus [12])
